Key:
[1] = Body weight and food intake in meal-fed rats, oral administration, 17 day study (Example 21); assay type: in vivo, Charles River female rats; conditions: 17 days
Method: (§1) Two month old Charles River female rats (Charles River Breeding Laboratories, Wilmington, Mass.) were individually housed in wire-bottomedcages in a temperature-regulated (22° C.) light-controlled room (12 hr light, 6 a.m. to 6 p.m. and 12 hr dark, 6 p.m. to 6 a.m.). […] On the 8th day, the animals were administered water or (-)-threo-chlorocitric acid at the indicated concentration by oral intubation 30 min before the 3 hr meal. Treatment was continued for 17 days. Food cups were weighed immediately after the meal. The amount of body weight gained and food consumed during the period was determined.

[2] = Anorectic effect in 8 hour meal-fed Zucker rats (Example 17); assay type: in vivo, lean (Fa/-) and obese (fa/fa)
Method: Lean (Fa/-) Zucker rats and obese (fa/fa) Zucker rats of both sexes were individually housed in wire-bottomed cages in a temperature-regulated (22° C.) light-controlled room (12 hr light, 6 a.m. to 6 p.m. and 12 hr dark, 6 p.m. 6 a.m.). The animals were fed a high carbohydrate (70% glucose) diet ad libitum for 13 days, dosed with the indicated compounds by oral intubation for 9 days and allowed to recover for 3 days. The animals were then meal fed from 8 a.m. to 4 p.m. for a period of 5 days, following which they were continued on the same meal schedule for an additional 6 days. During the 6-day period, the animals were administered the indicated compounds by oral intubation at 8 a.m. and 12 p.m. Food cups were weighed immediately after the meal.

Cholesterol Synthesis = assay: Cholesterol synthesis in isolated rat hepatocytes (Example 23); assay type: cell-based, rat (female Charles River); conditions: 2 mM, 60 min, 37° C., 2000 µM
Method: Female Charles River rats were fasted 48 hr, then meal-fed a 1% corn oil, 70% glucose diet for 7 to 14 days from 8 to 11 a.m. The isolated rat hepatocytes were prepared by perfusing the liver in situ. The hepatocytes were incubated in an oscillating water bath at 37° C. for 60 min. […] All incubations were done in triplicate and all experiments were repeated at least twice. […] The contents of the center well were transferred to scintillation counting fluid and ^14 CO2 content was determined. […] The media was then acidified, extracted with hexane, and the extract counted (to determine the rate of lipogenesis). The conversion of ^3 H2 O and [^14 C]alanine into fatty acids or sterols was determined in a PDS/3, Mark II liquid scintillation counting system.

[3] = Body weight gain in 8 hour meal-fed Zucker rats (Example 18); assay type: in vivo, lean (Fa/-) and obese (fa/fa); conditions: 0.66 mmoles/kg b.i.d. oral, 6 days, mean ± S.E.
Method: Lean (Fa/-) Zucker rats and obese (fa/fa) Zucker rats of both sexes were individually housed in wire-bottomed cages in a temperature-regulated (22° C.) light-controlled room (12 hr light, 6 a.m. to 6 p.m. and 12 hr dark, 6 p.m. to 6 a.m.). The animals were fed a high carbohydrate (70% glucose) diet ad libitum for 13 days, dosed with the indicated compounds by oral intubation for 9 days and allowed to recover for 3 days. The animals were then meal fed from 8 a.m. to 4 p.m. for a period of 5 days, following which they were continued on the same meal schedule for an additional 6 days. During the 6-day period, the animals were administered the indicated compounds by oral intubation at 8 a.m. and 12 p.m. Body weight gain during the 6-day period was determined.

[4] = Total body fat in meal-fed rats, oral administration, 17 day study (Example 22); assay type: in vivo, Charles River female rats; conditions: 17 days
Method: as §1, with “After 17 days” for “The amount”, “treatment, rats were killed by decapitation” for “body weight gained”, “blood” for “food consumed during the period”, “removed. […] C. Sullivan, et al, Am. J. Clinical Nutrition, 30 767 (1977). […] Total carcass and lipid data are expressed in grams and percentages of carcass weight.” for “determined.”

[5] = system: fatty acid and cholesterol syntheses; assay: Inhibition of fatty acid, lipid and cholesterol synthesis (summary statements)
[6] = Body weight and food intake in meal-fed rats, 16 day study (Example 19); assay type: in vivo, Charles River female rats; conditions: 16 days
Method: Two month old Charles River female rats (Charles River Breeding Laboratories, Wilmington, Mass.) were individually housed in wire-bottomedcages in a temperature-regulated (22° C.) light-controlled room (12 hr light, 6 a.m. to 6 p.m. and 12 hr dark, 6 p.m. to 6 a.m.). […] (1) control, (2) (-)-threo-chlorocitric acid (1.0 mmoles/kg, 227 mg/kg) administered by oral intubation 30 min before the 3 hr meal, and (3) (-)-threo-chlorocitric acid (1.1 mmoles/kg, 250 mg/kg) as a dietary admixture for the 3 hr meal. Treatment was continued for 16 days. The amount of body weight gained and food consumed during the study were determined.

[7] = Anorectic activity, body weight and carcass analysis in mammals (summary statements); assay type: in vivo
[8] = G-70, 0.25 mmoles (57 mg)/kg oral
[9] = G-70, 0.50 mmoles (114 mg)/kg oral
[10] = G-70, 1.00 mmoles (227 mg)/kg oral
[11] = G-70, 0.05 mmoles (114 mg)/kg oral (so in the source)
[12] = dietary admixture, 1.1 mmoles (250 mg)/kg/day
[13] = oral intubation, 1.0 mmoles (227 mg)/kg/day

Structure (SMILES): O=C(O)C[C@@](O)(C(=O)O)[C@@H](Cl)C(=O)O [(-)-threo-Chlorocitric acid, (-)-threo-chlorocitric acid]
- CBWG (cumulative body weight gain) [1, 8]: 12 ± 4 g
- CFC (cumulative food consumption) [1, 8]: 209 ± 10 g
- FBW (final body weight) [1, 8]: 211 ± 7 g
- CBWG (cumulative body weight gain) [1, 9]: -6 ± 6 g
- CFC (cumulative food consumption) [1, 9]: 176 ± 9 g
- FBW (final body weight) [1, 9]: 188 ± 7 g
- CBWG (cumulative body weight gain) [1, 10]: -29 ± 6 g
- CFC (cumulative food consumption) [1, 10]: 153 ± 4 g
- FBW (final body weight) [1, 10]: 169 ± 6 g
- Daily Food Consumption ([2]; Fa/- lean, 0.66 mmoles/kg oral, treatment day 1): 12.5 ± 1.1 g
- Daily Food Consumption ([2]; Fa/- lean, 0.66 mmoles/kg oral, treatment day 2): 7.0 ± 0.9 g
- Daily Food Consumption ([2]; Fa/- lean, 0.66 mmoles/kg oral, treatment day 3): 7.2 ± 0.7 g
- Daily Food Consumption ([2]; Fa/- lean, 0.66 mmoles/kg oral, treatment day 4): 5.4 ± 1.1 g
- Daily Food Consumption ([2]; Fa/- lean, 0.66 mmoles/kg oral, treatment day 5): 7.3 ± 1.5 g
- Daily Food Consumption ([2]; Fa/- lean, 0.66 mmoles/kg oral, treatment day 6): 7.5 ± 1.3 g
- Daily Food Consumption ([2]; Fa/- lean, 0.66 mmoles/kg, day 0 (pretreatment)): 10.8 ± 1.0 g
- Daily Food Consumption ([2]; fa/fa obese, 0.66 mmoles/kg oral, treatment day 1): 10.7 ± 0.7 g
- Daily Food Consumption ([2]; fa/fa obese, 0.66 mmoles/kg oral, treatment day 2): 5.9 ± 1.5 g
- Daily Food Consumption ([2]; fa/fa obese, 0.66 mmoles/kg oral, treatment day 3): 5.8 ± 0.9 g
- Daily Food Consumption ([2]; fa/fa obese, 0.66 mmoles/kg oral, treatment day 4): 5.5 ± 0.9 g
- Daily Food Consumption ([2]; fa/fa obese, 0.66 mmoles/kg oral, treatment day 5): 4.9 ± 1.0 g
- Daily Food Consumption ([2]; fa/fa obese, 0.66 mmoles/kg oral, treatment day 6): 5.1 ± 1.1 g
- Daily Food Consumption ([2]; fa/fa obese, 0.66 mmoles/kg, day 0 (pretreatment)): 13.1 ± 1.1 g
- Cholesterol Synthesis, 3H2O converted (Cholesterol Synthesis): 98 % of control
- Body Weight Gain ([3]; Fa/- lean): -20.7 ± 2.2 g
- Body Weight Gain ([3]; fa/fa obese): -33.5 ± 3.1 g
- Carcass Lipid (% carcass), % of control [4, 11]: 82 % of control
- Carcass Lipid total, % of control [4, 11]: 67 % of control
- Carcass Lipid, % carcass [4, 11]: 4.43 ± 0.56 % carcass
- Carcass Lipid, total [4, 11]: 7.85 ± 1.03 g
- Carcass Weight [4, 11]: 177 ± 2 g
- Carcass Lipid (% carcass), % of control [4, 8]: 84 % of control
- Carcass Lipid total, % of control [4, 8]: 76 % of control
- Carcass Lipid, % carcass [4, 8]: 4.58 ± 0.09 % carcass
- Carcass Lipid, total [4, 8]: 8.98 ± 0.30 g
- Carcass Weight [4, 8]: 196 ± 4 g
- Carcass Lipid (% carcass), % of control [4, 10]: 64 % of control
- Carcass Lipid total, % of control [4, 10]: 50 % of control
- Carcass Lipid, % carcass [4, 10]: 3.48 ± 0.68 % carcass
- Carcass Lipid, total [4, 10]: 5.95 ± 1.28 g
- Carcass Weight [4, 10]: 169 ± 6 g
- metabolic activity on lipid (fatty acid) and cholesterol syntheses [5]: devoid of metabolic activity as an inhibitor of lipid and cholesterol syntheses
- CBWG (cumulative body weight gain) [6, 12]: -8 ± 6 g
- CFC (cumulative food consumption) [6, 12]: 157 ± 9 g
- FBW (final body weight) [6, 12]: 184 ± 8 g
- CBWG (cumulative body weight gain) [6, 13]: -27 ± 4 g
- CFC (cumulative food consumption) [6, 13]: 139 ± 6 g
- FBW (final body weight) [6, 13]: 163 ± 5 g
- anorectic activity as measured by reduction in food consumption ([7]; acute meal-fed assay utilizing three diets and pyramiding dose studies, compared with hydroxycitric acid): significantly more active
- carcass analysis: origin of weight loss ([7]; chronic studies): weight loss was due to reduction in body lipids
- appetite suppression and reduced body weight gain ([7]; short- and long-term chronic studies, compared with hydroxycitric acid or citric acid): suppressed appetite and reduced body weight gain in mammals more efficaciously than hydroxycitric acid or citric acid

— patent US4443619A, “Chlorocitric acids” (Hoffmann-La Roche Inc., priority 1981, dated 1984)
